Assays:
[1] = biological target: T1, human progesterone receptor A (Homo sapiens, UniProt P06401); experiment: Progesterone-receptor-antagonistic action in stably transfected SK-N-MC cells, MTV-LUC reporter (PR-A); assay type: cell-based; settings: antagonistic potency vs 0.1 nmol/l promegestone, 24 hours, luciferase
T1 construct: expressed in transfected cells; host or cells: SK-N-MC human neuroblastoma cells, stably transfected
T1 sequence (P06401 1-769 isoform P06401-2): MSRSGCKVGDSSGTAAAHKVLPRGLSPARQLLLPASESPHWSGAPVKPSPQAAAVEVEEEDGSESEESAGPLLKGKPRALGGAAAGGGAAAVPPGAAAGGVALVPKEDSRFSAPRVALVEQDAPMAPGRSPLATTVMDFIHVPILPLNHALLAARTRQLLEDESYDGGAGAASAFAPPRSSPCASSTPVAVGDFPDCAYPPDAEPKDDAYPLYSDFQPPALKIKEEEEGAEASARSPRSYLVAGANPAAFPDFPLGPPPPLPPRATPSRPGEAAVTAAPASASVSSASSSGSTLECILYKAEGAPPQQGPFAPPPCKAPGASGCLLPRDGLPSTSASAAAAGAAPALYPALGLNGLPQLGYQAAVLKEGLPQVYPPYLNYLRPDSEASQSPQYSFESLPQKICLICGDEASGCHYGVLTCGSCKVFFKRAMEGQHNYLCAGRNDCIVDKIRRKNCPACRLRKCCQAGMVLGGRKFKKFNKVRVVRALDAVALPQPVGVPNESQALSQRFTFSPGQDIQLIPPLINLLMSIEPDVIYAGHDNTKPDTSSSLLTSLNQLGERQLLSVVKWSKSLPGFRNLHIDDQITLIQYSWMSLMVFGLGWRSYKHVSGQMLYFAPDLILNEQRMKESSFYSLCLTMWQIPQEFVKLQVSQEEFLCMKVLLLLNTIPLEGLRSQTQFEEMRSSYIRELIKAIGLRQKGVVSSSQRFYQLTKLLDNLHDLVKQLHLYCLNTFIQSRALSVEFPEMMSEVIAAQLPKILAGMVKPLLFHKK
In short: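 SK-N-MC neuroblastoma cells stably expressing human PR-B or PR-A plus MMTV-LUC reporter, treated 24 h with 0.1 nmol/l promegestone plus test compound at 0.01 nmol/l–1 μmol/l. Luciferase in lysates read as RLU; values as % efficacy and IC50.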

pregnant rats = experiment: Test as abortifacient in female rats (termination of early pregnancy); assay type: in vivo, rat; settings: d5-d7 p.c., autopsy d9 p.c.
Experimental: Test as Abortifacient in Female Rats
The antagonistic action of the compounds according to the invention was tested on pregnant rats (6 rats per group) on day 5 to 7 post coitum in conventional conditions of husbandry and feeding.
After successful mating, the pregnant animals (presence of sperm in the vaginal smear on day 1 of pregnancy=d1 p.c.) were randomized and were divided into the treatment group and the control group. The animals then received, subcutaneously or orally, in each case 0.15; 0.5; 1.5 or 5 mg/kg of the test compound or 1.0 ml/kg of vehicle (benzyl benzoate/castor oil: 1+4 [v/v]) daily from day 5 to day 7 (d5-d7 p.c.).
Autopsy was carried out on day 9 (d9 p.c.). For characterization of progesterone-receptor-antagonistic action, the uterus was investigated for the presence of nidation sites. Complete absence, but also the presence of pathological, haemorrhagic or otherwise abnormal nidation sites on day 9 (d9 p.c.) was assessed as abortion.

[2] = Metabolic stability in human liver microsomes (HLM); assay type: in vitro ADME; settings: from HLM half-life, well-stirred model, phase I reactions; 1 μM test compound
Experimental: Metabolic stability of 4-[(11β,17β)-17-hydroxy-3-oxo-17-(pentafluoro-ethyl)estra-4,9-dien-11-yl]benzamide and 4′-[(11β,17β)-17-hydroxy-3-oxo-17-(pentafluoro-ethyl)estra-4,9-dien-11-yl]biphenyl-4-carboxamide in human liver microsomes (HLM) Isolated human liver microsomes (HLM) were used for assessing the metabolic stability of compounds of general formula I. The incubations were carried out with 2.4 ml HLM solution (0.5 mg/ml protein content), 30 μl of the test compound (final concentration 1 μM) and 0.6 ml of the cofactor mixture (=NADPH-generating system of 3 IU glucose-6-phosphate dehydrogenase, 14.6 mg glucose-6-phosphate, 1.2 mg NADP) at 37° C. in 100 mM phosphate buffer at pH 7.4. Samples are taken at 6 time points (2-60 min), precipitated with an equal volume of methanol, and the recovery of the test substances used in the supernatant is determined by LC-MS/MS analysis. The intrinsic clearance of the substance in the liver microsome assay can be calculated from the value found for the half-life of substance breakdown. Using this, on the basis of various physiological characteristics according to the well-stirred model it is possible to predict a (metabolic) in-vivo clearance with respect to phase I reactions.

SMILES: C[C@]12C[C@H](c3ccc(-c4ccc(C(N)=O)cc4)cc3)C3=C4CCC(=O)C=C4CC[C@H]3[C@@H]1CC[C@@]2(O)C(F)(F)C(F)(F)F [Example 79, 4′-[(11β,17β)-17-Hydroxy-3-oxo-17-(pentafluoroethyl)estra-4,9-dien-11-yl]biphenyl-4-carboxamide]
- IC50 [1]: 0.01 nM
- Abortion rate (pregnant rats; daily dose 0.5 mg/kg p.o.): 100%
- Abortion rate (pregnant rats; daily dose 1.5 mg/kg p.o.): 100%
- Abortion rate (pregnant rats; daily dose 5.0 mg/kg p.o.): 100%
- (metabolic) in-vivo clearance in humans predicted [2]: 3.5 mL/min/kg
